Measured values: patent US11708360B2, “N-substituted-dioxocyclobutenylamino-3-hydroxy-picolinamides useful as CCR6 inhibitors” (Pfizer Inc., priority 2018, dated 2023)
pIC50: −log10 of the molar value. Read-outs that look alike come from different tables or passages of the source.

Experiments:
[1] = biological target: T1, CCR6 (Homo sapiens, UniProt P51684); assay: CCR6+ T Cell Chemotaxis Assay; assay type: cell-based; details: for pIC50: Table 11, human CD4+CCR6+CXCR3- T cells, CCL20 0.5 nM in bottom chamber, 1 h at 37° C., read-out: IC50; for T Cell Chemotaxis Selectivity: Table 13, T cell chemotaxis compared to neutrophil chemotaxis
T1 construct: Human CD4+CCR6+CXCR3-T cells were isolated from leukopak from healthy donors; endogenous in cells
T1 sequence (P51684 1-374): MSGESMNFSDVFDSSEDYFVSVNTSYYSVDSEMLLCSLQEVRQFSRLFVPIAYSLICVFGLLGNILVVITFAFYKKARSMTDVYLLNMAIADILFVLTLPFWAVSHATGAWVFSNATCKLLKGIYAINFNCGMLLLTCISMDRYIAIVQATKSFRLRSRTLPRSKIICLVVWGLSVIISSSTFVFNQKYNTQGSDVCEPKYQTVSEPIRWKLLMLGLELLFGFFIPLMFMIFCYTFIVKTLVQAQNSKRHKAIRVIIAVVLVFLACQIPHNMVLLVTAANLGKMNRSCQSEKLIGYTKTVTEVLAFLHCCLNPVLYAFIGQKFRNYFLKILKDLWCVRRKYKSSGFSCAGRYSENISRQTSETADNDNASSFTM
Excerpt: Human CD4+CCR6+CXCR3-T cells were isolated from leukopak from healthy donors using EasySep™ Human Th17 Cell Enrichment Kit. […] Day 4 post activation, Dynabeads were removed from the culture. The activated T cells were maintained at 1-2×10^6 cells/mL for 15 days by feeding fresh growth media when needed.
For IC50 determination, the top and bottom of the chemotaxis chamber contained the same concentration of compound. DMSO was kept constant at 0.1% (v/v) in all wells. The final concentration of CCL20 (Peprotech 300-29A) in the bottom chamber is 0.5 nM. The fully assembled chemotaxis plate was placed in a cell culture incubator at 37° C., 5% CO2 for 1 h. After incubation, the top filter was removed, followed by a quick freeze of the bottom chamber at −80° C. for 1 h. The migrated cells in the bottom chamber were stained with CyQUANT dye (Life Technologies, C7026) for cell number determination.
IC50 values for compounds of the present invention (Table 11) were determined by the non-linear regression analysis of dose response curves.

[2] = biological target: T2, CXCR2 (Homo sapiens, UniProt P25025); assay: Human Neutrophil Chemotaxis Assay; assay type: cell-based; parameters: Human neutrophils were purified from freshly drawn human whole blood; endogenous in cells; host or cells: primary human neutrophils from fresh whole blood; details: for pIC50: Table 12, human neutrophils migrating towards the CXCR2 ligand GROα, read-out: IC50
T2 sequence (P25025 1-360): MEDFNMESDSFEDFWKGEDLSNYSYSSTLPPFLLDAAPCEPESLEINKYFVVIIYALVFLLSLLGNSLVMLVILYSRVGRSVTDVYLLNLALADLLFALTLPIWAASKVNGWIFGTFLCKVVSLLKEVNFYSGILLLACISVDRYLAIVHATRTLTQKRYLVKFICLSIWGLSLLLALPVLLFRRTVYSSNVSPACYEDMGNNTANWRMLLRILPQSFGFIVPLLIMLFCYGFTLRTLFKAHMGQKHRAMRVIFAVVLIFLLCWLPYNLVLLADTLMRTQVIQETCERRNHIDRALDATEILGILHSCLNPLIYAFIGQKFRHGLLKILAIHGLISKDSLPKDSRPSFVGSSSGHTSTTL
Description: After 30 min, the labeled neutrophils were washed twice in chemotaxis buffer, resuspended as before and used immediately. For the assay, test compounds were tested in a dose-response format to determine IC50. Labeled neutrophils (50 μL) were pre-incubated with diluted test compound (50 μL) for 30 min in a 96-well plate (Greiner). Next, 100 μL of diluted compound was mixed with 100 μL of GROα (Peprotech #300-11, 2 nM) in the bottom portion of the chemotaxis chamber. The top portion (insert) of the chemotaxis system containing the FluoroBlok porous membrane was then assembled together. 50 μL of the pre-incubated neutrophils were added to the FluoroBlok insert (top portion) and chemotaxis measured by the neutrophils ability to migrate through the membrane towards the specific CXCR2 ligand, GROα.
IC50 values for compounds of the present invention (Table 12) were determined by the non-linear regression analysis of dose response curves.

[3] = NS = not selective for T cell chemotaxis compared to neutrophil chemotaxis
[4] = Table 15, WO 2010/131145 comparator compounds, read-out: IC50 (nM) CXCR2 Neutrophil, GROα Chemotaxis

pIC50 [1] | T Cell Chemotaxis Selectivity [1, 3] | pIC50 [2] | also measured | Compound
7.90 | 22 | 6.57 |  | COc1cn(C)nc1[C@H](Nc1c(Nc2ccnc(C(=O)N(C)C(C)C)c2O)c(=O)c1=O)C(C)(C)C [Example 14, (R)-3-Hydroxy-N-isopropyl-4-((2-((1-(4-methoxy-1-methyl-1H-pyrazol-3-yl)-2,2-dimethylpropyl)amino)-3,4-dioxocyclobut-1-en-1-yl)amino)-N-methylpicolinamide]
 |  |  | R = H, T Cell Chemotaxis Selectivity ([1]; Table 14, R = H, NS = not selective for T cell chemotaxis compared to neutrophil chemotaxis): 2.2; IC50 ([1]; Table 14, R = H, read-out: R = H, IC50 (nM) CCR6 T cell, CCL20 Chemotaxis): 19.2 nM; IC50 ([2]; Table 14, R = H, read-out: R = H, IC50 (nM) CXCR2 Neutrophil, GROα Chemotaxis): 42.1 nM | CN(C)C(=O)c1nccc(Nc2c(NC(c3ccn(C)n3)C3(C)CCCC3)c(=O)c2=O)c1O (centres unmarked) [drawing 179 (R = H), reference compound]
8.48 | 306 | 6.00 |  | CCc1cn(C)nc1[C@H](Nc1c(Nc2ccnc(C(=O)N(C)C)c2O)c(=O)c1=O)C1(C)CCCC1 [Example 18, (R)-4-((2-(((4-Ethyl-1-methyl-1H-pyrazol-3-yl)(1-methylcyclopentyl)methyl)amino)-3,4-dioxocyclobut-1-en-1-yl)amino)-3-hydroxy-N,N-dimethylpicolinamide]
6.04 |  |  |  | CCN(C)C(=O)c1nccc(Nc2c(N[C@H](c3nn(C)cc3C)C3(C)CCCC3)c(=O)c2=O)c1O [Example 5, (S)-4-((2-(((1,4-Dimethyl-1H-pyrazol-3-yl)(1-methylcyclopentyl)methyl)amino)-3,4-dioxocyclobut-1-en-1-yl)amino)-N-ethyl-3-hydroxy-N-methylpicolinamide]
8.20 | 140 | 6.05 |  | CCN(C)C(=O)c1nccc(Nc2c(N[C@@H](c3nn(C)cc3C)C3(C)CCCC3)c(=O)c2=O)c1O [Example 4, (R)-4-((2-(((1,4-Dimethyl-1H-pyrazol-3-yl)(1-methylcyclopentyl)methyl)amino)-3,4-dioxocyclobut-1-en-1-yl)amino)-N-ethyl-3-hydroxy-N-methylpicolinamide]
8.77 | 63 | 6.97 |  | COc1cn(C)nc1[C@H](Nc1c(Nc2ccnc(C(=O)N(C)C)c2O)c(=O)c1=O)C1(C)CCCC1 [Example 12, (R)-3-Hydroxy-4-((2-(((4-methoxy-1-methyl-1H-pyrazol-3-yl)(1-methylcyclopentyl)methyl)amino)-3,4-dioxocyclobut-1-en-1-yl)amino)-N,N-dimethylpicolinamide]
7.49 | 220 | 5.15 |  | Cc1cn(C)nc1[C@H](Nc1c(Nc2ccnc(C(=O)N(C)C)c2O)c(=O)c1=O)[C@]1(C)CC(F)(F)CO1 (single isomer, unassigned) [Example 36]
8.27 | 60 | 6.48 |  | COc1cn(C)nc1[C@H](Nc1c(Nc2ccnc(C(=O)N(C)C)c2O)c(=O)c1=O)C(C)(C)C [Example 13, (R)-3-Hydroxy-4-((2-((1-(4-methoxy-1-methyl-1H-pyrazol-3-yl)-2,2-dimethylpropyl)amino)-3,4-dioxocyclobut-1-en-1-yl)amino)-N,N-dimethylpicolinamide]
8.06 | 20 | 6.76 |  | CC(C)N(C)C(=O)c1nccc(Nc2c(N[C@@H](c3nn(C)cc3Cl)C3(C)CCCC3)c(=O)c2=O)c1O [Example 10, (R)-4-((2-(((4-Chloro-1-methyl-1H-pyrazol-3-yl)(1-methylcyclopentyl)methyl)amino)-3,4-dioxocyclobut-1-en-1-yl)amino)-3-hydroxy-N-isopropyl-N-methylpicolinamide]
7.34 | 60 | 5.56 |  | CC(C)N(C)C(=O)c1nccc(Nc2c(N[C@@H](c3nn(C)cc3C#N)C3(C)CCCC3)c(=O)c2=O)c1O [Example 31, (R)-4-((2-(((4-cyano-1-methyl-1H-pyrazol-3-yl)(1-methylcyclopentyl)methyl)amino)-3,4-dioxocyclobut-1-en-1-yl)amino)-3-hydroxy-N-isopropyl-N-methylpicolinamide]
 |  |  | IC50 ([1]; Table 15, WO 2010/131145 comparator compounds, read-out: IC50 (nM) CCR6 T cell, CCL20 Chemotaxis): 388 nM; IC50 [2, 4]: 5.7 nM | CC[C@@H](Nc1c(Nc2ccnc(C(=O)N(C)C)c2O)c(=O)c1=O)c1cccc(C2CC2)c1 [Example 120, reference compound]
7.94 | 51 | 6.23 |  | Cc1cn(C)nc1[C@H](Nc1c(Nc2ccnc(C(=O)N3CCOCC3)c2O)c(=O)c1=O)C1(C)CCCC1 [Example 6, (R)-3-(((1,4-dimethyl-1H-pyrazol-3-yl)(1-methylcyclopentyl)methyl)amino)-4-((3-hydroxy-2-(morpholine-4-carbonyl)pyridin-4-yl)amino)cyclobut-3-ene-1,2-dione]
6.99 | 3 | 6.53 |  | CCc1cn(C)nc1[C@H](Nc1c(Nc2ccnc(C(=O)N(C)C)c2O)c(=O)c1=O)C1(C)CC1 [Example 21, (R)-4-((2-(((4-Ethyl-1-methyl-1H-pyrazol-3-yl)(1-methylcyclopropyl)methyl)amino)-3,4-dioxocyclobut-1-en-1-yl)amino)-3-hydroxy-N,N-dimethylpicolinamide]
7.97 | 69 | 6.13 |  | CN(C)C(=O)c1nccc(Nc2c(N[C@@H](c3nn(C)cc3OC(F)F)C3(C)CCCC3)c(=O)c2=O)c1O [Example 15, (R)-4-((2-(((4-(Difluoromethoxy)-1-methyl-1H-pyrazol-3-yl)(1-methylcyclopentyl)methyl)amino)-3,4-dioxocyclobut-1-en-1-yl)amino)-3-hydroxy-N,N-dimethylpicolinamide]
8.23 | 535 | 5.50 |  | Cc1cn(C)nc1[C@H](Nc1c(Nc2ccnc(C(=O)N(C)C)c2O)c(=O)c1=O)C1(C)CC2(CC2)C1 (single isomer, unassigned) [Example 17]
7.52 | 8 | 6.59 |  | CCC1([C@@H](Nc2c(Nc3ccnc(C(=O)N(C)C)c3O)c(=O)c2=O)c2nn(C)cc2C)CCC1 (single isomer, unassigned) [Example 35]
8.13 | 19 | 6.85 |  | Cc1cn(C)nc1[C@H](Nc1c(Nc2ccnc(C(=O)N(C)C)c2O)c(=O)c1=O)C(C)(C)C [Example 22, (R)-4-((2-((1-(1,4-Dimethyl-1H-pyrazol-3-yl)-2,2-dimethylpropyl)amino)-3,4-dioxocyclobut-1-en-1-yl)amino)-3-hydroxy-N,N-dimethylpicolinamide]
 |  |  | IC50 ([2]; Table 17, WO 2013/061005 comparator compounds, read-out: IC50 (nM) CXCR2 Neutrophil, GROα Chemotaxis): 121 nM | Cc1ccc([C@H](Nc2c(Nc3cccc(C(=O)N(C)C)c3O)c(=O)c2=O)C2(C)COC2)o1 [Example 50, reference compound]
 |  |  | IC50 [2, 4]: 23.2 nM | CC[C@@H](Nc1c(Nc2ccnc(C(=O)N(C)C)c2O)c(=O)c1=O)c1cc(C(C)C)co1 [Example 112, reference compound]
